The Kd is the free concentration of one partner at which half of the binding sites on the other are occupied at equilibrium, for simple one-to-one binding.

A short description of assay [1]: Binding affinity to wild type Angiococcus disciformis PKS/NRPS expressed in Escherichia coli BL21 (DE3) by isothermal titration calorimetry. (ITC needs no label: the signal is the heat of the interaction.)
The nature of assay [2]: Binding affinity to wild type Angiococcus disciformis PKS/NRPS expressed in Escherichia coli BL21 (DE3) by surface plasmon resonance assay. A general note: Surface plasmon resonance follows binding to a sensor surface in real time, without labels.
The nature of assay [3]: Binding affinity to wild type Angiococcus disciformis PKS/NRPS R20A mutant expressed in Escherichia coli BL21 (DE3) by surface plasmon resonance assay.
Assay [4] is described as follows: Binding affinity to wild type Angiococcus disciformis PKS/NRPS R27A mutant expressed in Escherichia coli BL21 (DE3) by surface plasmon resonance assay.
A short description of assay [5]: Binding affinity to wild type Angiococcus disciformis PKS/NRPS R29A mutant expressed in Escherichia coli BL21 (DE3) by surface plasmon resonance assay.
Assay [6] in a line: Binding affinity to wild type Angiococcus disciformis PKS/NRPS R20A/R27A mutant expressed in Escherichia coli BL21 (DE3) by surface plasmon resonance assay.
Assay [7] in a line: Binding affinity to wild type Angiococcus disciformis PKS/NRPS R20A/R29A mutant expressed in Escherichia coli BL21 (DE3) by surface plasmon resonance assay.
Assay [8] is described as follows: Binding affinity to wild type Angiococcus disciformis PKS/NRPS R27A/R29A mutant expressed in Escherichia coli BL21 (DE3) by surface plasmon resonance assay.

Turning to `CCCC(=O)OCN(C(=O)[C@@H](NC(=O)[C@H]1CCCCN1C)[C@@H](C)CC)[C@H](C[C@@H](OC(C)=O)c1nc(C(=O)N[C@@H](Cc2ccc(O)cc2)C[C@H](C)C(=O)O)cs1)C(C)C` [TUBULYSIN B], the Kd was found to be 47 µM in assay [1]; 46 µM in assay [2]; 59 µM in assay [3]; 121 µM in assay [4]; 453 µM in assay [5]; 114 µM in assay [6]. Also, the Kd in assay [7] came out at 596 µM; in assay [8], 282 µM.

The values are drawn from ChEMBL document CHEMBL1212696, “Multienzyme docking in hybrid megasynthetases” (Nat Chem Biol, 2008).
